Experimental findings from PubChem BioAssay (NCI) are described below.

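In this assay, cells in 96-well plates receive the compound at five concentrations for 48 hours. Endpoints are linearly interpolated between the surrounding concentrations. The concentration for 50% growth inhibition is given as GI50. TGI is the concentration that stops growth completely.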 Where only a bound is given, the exact number is not on record here.

Among the test systems are SR leukemia; NCI-H226 lung; NCI-H23 lung; A498 renal; TK-10 renal; HCT-15 colon; SF-268 CNS; CAKI-1 renal; M14 melanoma; RXF 393 renal.
What all share (assay): DTP human tumour cell line panel, 48 h

For orientation: TGI means the concentration giving total growth inhibition. High values mean lower sensitivity of the cells, low ones greater sensitivity of the cells. On to `Cc1ccc(C)c(NC(=O)/C(=N\NC(N)=S)C(C#N)c2ccccc2)c1` (stereo unspecified), for which the TGI in the experiment on SR leukemia, in the experiment with NCI-H226 lung, in the experiment with NCI-H23 lung, with A498 renal, in the experiment with TK-10 renal and with HCT-15 colon was over 100 µM in each case. The TGI in the experiment on SF-268 CNS, with CAKI-1 renal and in the experiment on M14 melanoma was over 100 µM in each case.
Consider `O=C(O)c1nnsc1COCc1ccccc1`, for which the TGI in the experiment on SR leukemia, with NCI-H23 lung, in the experiment with A498 renal, with TK-10 renal, in the experiment with HCT-15 colon and with SF-268 CNS was over 100 µM in each case. Moreover, the TGI with CAKI-1 renal, in the experiment on RXF 393 renal and with M14 melanoma was over 100 µM throughout.
As for `CN(C)CCNC(=O)c1cccc(CO)c1[N+](=O)[O-]`, the TGI in the experiment on SR leukemia, with NCI-H226 lung, in the experiment on NCI-H23 lung, with A498 renal, with TK-10 renal and in the experiment with HCT-15 colon was over 100 µM throughout. Further, the TGI with SF-268 CNS, with CAKI-1 renal and in the experiment on M14 melanoma was over 100 µM in each case.
With `c1cncc(C2c3[nH]c4ccccc4c3CCN2CCN2CCCCC2)c1` (stereo unspecified), the TGI with SR leukemia, in the experiment on NCI-H23 lung, in the experiment on A498 renal, in the experiment with TK-10 renal, in the experiment on HCT-15 colon and in the experiment on SF-268 CNS was over 100 µM throughout. Further, the TGI in the experiment on CAKI-1 renal is over 100 µM; in the experiment on M14 melanoma, 32.3 µM.
Consider `COC1C(=O)CCC2(CO2)C1(O)C1(C)OC1CCC(C)C` (stereo unspecified), for which the TGI in the experiment with SR leukemia, in the experiment on NCI-H226 lung, in the experiment on NCI-H23 lung, in the experiment on A498 renal, in the experiment with HCT-15 colon and in the experiment with SF-268 CNS was over 100 µM in each case. The TGI in the experiment on CAKI-1 renal, in the experiment on RXF 393 renal and with M14 melanoma was over 100 µM each time.
Usually GI50 stands for the concentration giving 50% growth inhibition. On to `[Cl][Sn]([c]1ccccc1)[c]1ccccc1`, for which the GI50 in the experiment on SR leukemia is 3.39 µM; in the experiment with NCI-H226 lung it was 15.8 µM; in the experiment with NCI-H23 lung, 5.19 µM; with TK-10 renal, 3.17 µM; with HCT-15 colon, 4.48 µM; with SF-268 CNS, 4.1 µM. Also, the GI50 is 2.54 µM with CAKI-1 renal, 1.55 µM in the experiment with RXF 393 renal and 8.24 µM with M14 melanoma. In addition, the TGI came out at 17.5 µM in the experiment on SR leukemia; 29.6 µM in the experiment with NCI-H226 lung; 18.1 µM in the experiment with NCI-H23 lung; 8.57 µM in the experiment on TK-10 renal; 18 µM in the experiment with HCT-15 colon; 16.1 µM in the experiment with SF-268 CNS. The TGI with CAKI-1 renal is 8.98 µM; in the experiment on RXF 393 renal, 3.24 µM; in the experiment on M14 melanoma, 24.4 µM.
Take `Cn1c(=O)c2c(nc3n2CCC(=O)N3)n(C)c1=O`: the TGI in the experiment with SR leukemia, in the experiment with NCI-H226 lung, in the experiment on NCI-H23 lung, in the experiment with A498 renal, in the experiment on TK-10 renal and in the experiment on SF-268 CNS was over 100 µM in each case. Further, the concentration for total growth inhibition (TGI) in the experiment on CAKI-1 renal and with RXF 393 renal was over 100 µM each time.
In the case of `O=C1OCC2=Nc3cccc4cccc(c34)N12`, the TGI in the experiment on SR leukemia, in the experiment with NCI-H226 lung, with NCI-H23 lung, with TK-10 renal, in the experiment on HCT-15 colon and with SF-268 CNS was over 100 µM throughout. Moreover, the TGI with CAKI-1 renal, in the experiment with RXF 393 renal and in the experiment with M14 melanoma was over 100 µM in each case.
With `O=c1c(OC/C(=N/O)c2ccccc2)c(-c2ccccc2)oc2ccccc12`, the GI50 was 13.9 µM in the experiment on SR leukemia; 21.3 µM in the experiment on NCI-H226 lung; 18.1 µM in the experiment on NCI-H23 lung; 11.6 µM in the experiment on TK-10 renal; 17.1 µM in the experiment with HCT-15 colon; 11.7 µM in the experiment on SF-268 CNS. Moreover, the GI50 in the experiment with CAKI-1 renal was 9.52 µM; with RXF 393 renal, 20.8 µM; in the experiment with M14 melanoma it was 19.4 µM. Moreover, the TGI is over 50 µM with SR leukemia; over 50 µM in the experiment with NCI-H226 lung; over 50 µM in the experiment with NCI-H23 lung; 22.8 µM in the experiment on TK-10 renal; over 50 µM in the experiment with HCT-15 colon; 25 µM in the experiment with SF-268 CNS. Besides, the TGI in the experiment on CAKI-1 renal is 40.8 µM; in the experiment with RXF 393 renal, over 50 µM; with M14 melanoma, over 50 µM.
With `Cc1ccc(-n2c(C)nc3c2C(=O)c2ccccc2C3=O)cc1`, the TGI in the experiment with SR leukemia, with NCI-H226 lung, in the experiment with NCI-H23 lung, with TK-10 renal, in the experiment on HCT-15 colon and in the experiment with SF-268 CNS was over 100 µM throughout. Moreover, the TGI in the experiment on RXF 393 renal and with M14 melanoma was over 100 µM throughout.
With `OC1CCC(Oc2cccc3cnc(Nc4ccc5nc[nH]c5c4)nc23)CC1` (stereo unspecified), the GI50 is 0.143 µM in the experiment on SR leukemia; 0.21 µM in the experiment on NCI-H23 lung; 0.335 µM with A498 renal; 0.296 µM in the experiment with TK-10 renal; 0.508 µM in the experiment on HCT-15 colon; 0.413 µM with SF-268 CNS. Moreover, the GI50 was 0.497 µM in the experiment on CAKI-1 renal, 0.208 µM in the experiment with RXF 393 renal and 0.333 µM in the experiment on M14 melanoma. The TGI amounted to 0.671 µM in the experiment with SR leukemia; 1.63 µM in the experiment with NCI-H23 lung; 0.866 µM in the experiment on A498 renal; 11.4 µM with TK-10 renal; 16.7 µM in the experiment on HCT-15 colon; 12.8 µM in the experiment on SF-268 CNS. The TGI was found to be 21.5 µM in the experiment with CAKI-1 renal, 0.504 µM in the experiment on RXF 393 renal and 3.11 µM in the experiment on M14 melanoma.
For `COc1ccc([N+](=O)[O-])c2c(NCC(O)CO)ccnc12` (stereo unspecified), the total growth inhibition concentration (TGI) is over 100 µM in the experiment with SR leukemia; 40.4 µM in the experiment on NCI-H23 lung; 76.9 µM in the experiment with A498 renal; over 100 µM in the experiment on TK-10 renal; 35.1 µM with HCT-15 colon; over 100 µM in the experiment on SF-268 CNS. In addition, the TGI in the experiment with CAKI-1 renal, in the experiment with RXF 393 renal and in the experiment on M14 melanoma was over 100 µM throughout.
As for `Cc1ccc(S(=O)(=O)ON/N=C2/C3OC3[C@@H]3CCCC[C@H]23)cc1` (stereo partly specified), the TGI in the experiment with SR leukemia, with NCI-H226 lung, in the experiment on NCI-H23 lung, in the experiment on TK-10 renal, in the experiment on HCT-15 colon and in the experiment on SF-268 CNS was over 100 µM throughout. Also, the TGI in the experiment with CAKI-1 renal, with RXF 393 renal and with M14 melanoma was over 100 µM each time.
